Measurements published in publication PMC12475274, “Harnessing indole scaffolds to identify small-molecule IRE1α inhibitors modulating XBP1 mRNA splicing” (Nature Communications, 2025).
Several values for one entry are separate records, joined by “and”; a condition that tells them apart may be missing. Equal values may be shown once. Entries after “also recorded” stand apart in the source; their conditions may differ. Read-outs that look alike come from different tables or passages of the source.

Experiments:
[1] = biological target: T1, dephosphorylated IRE1α (547–977) (Homo sapiens, UniProt O75460); assay: FRET-based IRE1α RNase activity assay, dephosphorylated IRE1α; type: biochemical
T1 construct: Human IRE1α kinase and RNase domain (residues 547–977) was subcloned into pLIB plasmid; His tag (with TEV cleavage site) (N, cleaved yes); made in house; host or cells: Sf9 insect cells, baculovirus (Bac-to-Bac)
T1 sequence (O75460 547-977): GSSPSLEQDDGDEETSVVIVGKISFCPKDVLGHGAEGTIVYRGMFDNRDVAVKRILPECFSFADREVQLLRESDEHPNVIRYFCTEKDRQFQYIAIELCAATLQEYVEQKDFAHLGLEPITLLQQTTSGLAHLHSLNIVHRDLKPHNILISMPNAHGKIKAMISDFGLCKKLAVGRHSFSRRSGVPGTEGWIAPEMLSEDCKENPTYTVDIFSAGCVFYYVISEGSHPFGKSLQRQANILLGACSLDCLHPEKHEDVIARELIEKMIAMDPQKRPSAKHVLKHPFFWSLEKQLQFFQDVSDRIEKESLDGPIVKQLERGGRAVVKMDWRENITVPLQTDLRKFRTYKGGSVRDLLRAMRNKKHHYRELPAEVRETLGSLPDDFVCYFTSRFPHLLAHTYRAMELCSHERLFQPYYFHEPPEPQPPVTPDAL
Method in brief: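 Dephosphorylated human IRE1α (residues 547–977, Sf9-expressed, λ-phosphatase treated), 40 nM, preincubated 30 min with compound at room temperature, then 100 nM FAM/BHQ1 XBP1 RNA added in HEPES pH 7.5 buffer. Fluorescence (485/535 nm) read kinetically for 1 h; inhibition from linear-phase slopes versus DMSO, fitted to IC50.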

[2] = biological target: T2, p-IRE1α dimerization and oligomerization (Homo sapiens, UniProt O75460); assay: DSS cross-linking assay with mass photometry; conditions: 100 μM compound, DSS crosslinking
T2 construct: Human IRE1α kinase and RNase domain (residues 547–977) was subcloned into pLIB plasmid; His tag (with TEV cleavage site) (N, cleaved yes); made in house; host or cells: Sf9 insect cells, baculovirus (Bac-to-Bac)
T2 sequence (O75460 547-977): as above
Description: Phosphorylated IRE1α (p-IRE1α) and compounds were incubated 30 min at room temperature, with a final concentration of 2 μM p-IRE1α and 100 μM of the indicated compound, in a buffer containing 20 mM HEPES, pH 7.5, 50 mM KOAc, 1 mM MgOAc2, 1 mM DTT, 0.05% v/v TritonX-100, in a total reaction volume of 20 μL. After incubation, DSS (disuccinimidyl suberate, Thermo Fisher, A39267) was added to the reaction at a final concentration of 250 μM to induce crosslinking at room temperature for 1 h. Tris (pH 7.5) was added to a final concentration of 50 mM to stop the reaction. Samples were further measured with a mass photometry instrument (Refeyn Ltd). The PBS buffer was used for the mass photometry measurement. The instrument was calibrated with BSA and TG protein mixture in PBS. Samples were diluted to a protein concentration of 100 nM with buffer before measurement. Then, 18 μL PBS buffer was added to the center of the gasket on the coverslips to check and find the focus. Afterward, 2 μL of the diluted sample was added, mixed, and measured. Data were analyzed using Discover MP software, for each sample, results from 3 individual measurements were merged.

p-IRE1α = biological target: T3, p-IRE1α (Homo sapiens, UniProt O75460); assay: Gel-based RNA-cleavage assay; type: biochemical
T3 construct: Human IRE1α kinase and RNase domain (residues 547–977) was subcloned into pLIB plasmid; His tag (with TEV cleavage site) (N, cleaved yes); made in house; host or cells: Sf9 insect cells, baculovirus (Bac-to-Bac)
T3 sequence (O75460 547-977): as above
Description: Purified p-IRE1α with a final concentration of 10 nM was preincubated with the indicated compounds for 30 min at room temperature, then 50 nM FAM and BHQ-labeled XBP1 substrate were added to the reaction. The reaction was further incubated for 45 min at room temperature and then mixed with 6× TBE loading dye (45% H2O, 40 % glycerol, 15% 10× TBE, 0.1% bromphenol blue). 5 μL sample was loaded to 15% pre-runed urea-PAGE, and the gel was run in pre-warmed (~60 °C) 1× TBE buffer buffer in the dark. The gel fluorescence was detected and imaged using the ChemiDoc MP imaging system (Bio-Rad).

[3] = FRET assay at 50 μM, source data, 50 µM
[4] = FRET assay, RNase activity, mean (± SEM), read-out: IRE1α IC50
[5] = FRET assay, source data, unit from Fig. 3 / sheet Fig. 2b, read-out: IRE1a IC50, individual replicates (n1-n4)
[6] = IRE1a, IA34 0.000282 μM, Supplementary Fig. 3b, replicate values
[7] = IRE1a, IA34 1.85185 μM, Supplementary Fig. 3b, replicate values

With `CCOC(=O)Nc1cccc2c(Oc3ncccc3-c3ccnc(N[C@H]4CCCNC4)n3)c(C)ccc12` [Compound G1749, reference compound] the “effect on IRE1α RNase activity in the FRET assay” value (“effect on IRE1α RNase activity” for short) [1] was “activating IRE1α activity”, the “activity (fold change)” value ([1]; IRE1a, 5.55556 μM) was 6.184 fold change and 6.333 fold change and 5.999 fold change and 6.267 fold change and the “activity (fold change)” value ([1]; IRE1a, 16.6667 μM) was 6.104 fold change and 5.222 fold change and 7.238 fold change and 6.279 fold change. The “activity (fold change)” value ([1]; IRE1a, 50 μM) was 5.173 fold change and 5.3757 fold change and 6.203 fold change and 5.356 fold change and the “effect on p-IRE1α dimerization/oligomerization” value [2] was “inhibited the dimerization; also recorded: interfere with the dimerization”.

With `COc1ccc2c(c1)c(CCC(=O)O)c(C)n2C(=O)c1ccc(Cl)cc1` [IA01] the “inhibition of p-IRE1α RNase activity in gel-based cleavage assay” value (shortened to “inhibition of p-IRE1α RNase activity”) (p-IRE1α) was “concentration-dependently inhibited”, the “IRE1a inhibition(%), individual measurements” value (from here on “IRE1a inhibition(%)”) ([1]; FRET assay at 10 μM, source data, 10 µM) was 86.3319% and the inhibition at 10 µM ([1]; FRET assay at 10 μM, source data, read-out: IRE1a inhibition(%), individual measurements) was 85.9%. For the same molecule, the inhibition at 50 µM ([1]; FRET assay at 50 μM, mean (± SEM), read-out: IRE1α inhibition%) was 97.1%, the “IRE1a inhibition(%)” value [1, 3] was 92.8762% and 91.6346% and 94.1417% and 92.7378% and 93.1088% and 89.7986% and 113.165% and 103.517% and 100.196% and 112.293% and 71.6431% and 81.6993% and the IC50 [1, 4] was 300 nM. For the same molecule, the IC50 [1, 5] was 286 nM and 204 nM and 400 nM.

In the case of `COc1ccc2c(c1)c(CCC(=O)O)c(C)n2C(=O)c1ccc2ccccc2c1` [IA34], the “IRE1α IC50” value ([1]; FRET assay, RNase activity, mean (± SEM)) is reported as “IC₅₀ not reached”, the IC50 [1, 4] is reported as greater than 20000 nM and the inhibition at 0.000282 µM [1, 6] is reported as 11%. The “inhibition(%)” value [1, 6] was 17.14% and 20.16% and 15.89%, the “inhibition(%)” value ([1]; IRE1a, IA34 0.000847 μM, Supplementary Fig. 3b, replicate values) was 11.75% and 10.72% and 4.25% and 16.96% and the “inhibition(%)” value ([1]; IRE1a, IA34 0.00254 μM, Supplementary Fig. 3b, replicate values) was 11.91% and 15.33% and 6.07% and 5.16%. For the same molecule, the “inhibition(%)” value ([1]; IRE1a, IA34 0.007621 μM, Supplementary Fig. 3b, replicate values) was 4.65% and -4.78% and -13.00% and -9.42%, the “inhibition(%)” value ([1]; IRE1a, IA34 0.022862 μM, Supplementary Fig. 3b, replicate values) was -15.56% and -32.65% and -11.50% and -23.95% and the “inhibition(%)” value ([1]; IRE1a, IA34 0.068587 μM, Supplementary Fig. 3b, replicate values) was 0.30% and -2.50% and 3.18% and 1.26%. For the same molecule, the “inhibition(%)” value ([1]; IRE1a, IA34 0.205761 μM, Supplementary Fig. 3b, replicate values) was 4.13% and 5.59% and 2.33% and -2.10%, the “inhibition(%)” value ([1]; IRE1a, IA34 0.617284 μM, Supplementary Fig. 3b, replicate values) was 17.19% and 19.37% and 7.03% and 9.32% and the inhibition at 1.85185 µM [1, 7] was 10.8%. The “inhibition(%)” value [1, 7] was 18.23% and 17.28% and 17.87%, the “inhibition(%)” value ([1]; IRE1a, IA34 5.55556 μM, Supplementary Fig. 3b, replicate values) was 27.30% and 30.30% and 1.63% and 11.62% and the “inhibition(%)” value ([1]; IRE1a, IA34 16.6667 μM, Supplementary Fig. 3b, replicate values) was 11.08% and 14.65% and 30.15% and 29.94%. For the same molecule, the “inhibition(%)” value ([1]; IRE1a, IA34 50 μM, Supplementary Fig. 3b, replicate values) was -1.98% and 7.19% and 5.53% and 17.33%.

In the case of `COc1ccc2c(c1)c(CCC(=O)O)c(C)n2C(=O)c1ccccc1` [IA64], the “inhibition of p-IRE1α RNase activity” value (p-IRE1α) is reported as “inhibited p-IRE1α activity; also recorded: concentration-dependently inhibited”, the IC50 [1, 4] is reported as 30 nM and 34.9 nM and the IC50 [1, 5] is reported as 44.1 nM and 36.7 nM and 38.4 nM and 20.4 nM.

`Cc1c(CCC(=O)O)c2cc(Br)ccc2n1C(=O)c1ccccc1` [IA107] was tested, and the “inhibition of p-IRE1α RNase activity” value (p-IRE1α) was “concentration-dependently inhibited”, the “increase in potency (IRE1α)” value ([1]; FRET IC50, reference compound not named) was 20 fold and the “IRE1a inhibition(%)” value ([1]; FRET assay at 16.6667 μM, source data, 16.6667 µM) was 96.2448% and 97.4358% and 96.6561% and 93.7071% and 93.3922% and 93.79% and 97.6814%. For the same molecule, the inhibition at 16.6667 µM ([1]; FRET assay at 16.6667 μM, source data, read-out: IRE1a inhibition(%), individual measurements) was 92.4%, the “IRE1a inhibition(%)” value [1, 3] was 89.203% and 96.8587% and 95.5081% and 91.4695% and 84.6077% and 86.1159% and 92.8068% and the inhibition at 50 µM ([1]; FRET assay at 50 μM, source data, read-out: IRE1a inhibition(%), individual measurements) was 91.3%. The IC50 [1, 4] was 16 nM and 15.6 nM, the IC50 [1, 5] was 15.5 nM and 17 nM and 14.2 nM and the “effect on p-IRE1α dimerization/oligomerization” value [2] was “did not inhibit the dimerization and oligomerization; also recorded: did not affect the dimerization and oligomerization”.

For `Cc1c(CCC(=O)O)c2cc(Cl)ccc2n1C(=O)c1ccccc1` [IA141], the IC50 [1, 4] was 52 nM and 50 nM and the IC50 [1, 5] was 61.7 nM and 34.6 nM and 58.2 nM.

`Cc1ccc2c(c1)c(CCC(=O)O)c(C)n2C(=O)c1ccccc1` [IA147] was tested, and the IC50 [1, 4] was 66 nM and 66.4 nM and the IC50 [1, 5] was 90.6 nM and 45.5 nM and 63.2 nM.

In the case of `CCOC(=O)CCc1c(C)n(C(=O)c2ccccc2)c2ccc(Br)cc12` [IAPD1], the “effect on IRE1α RNase activity” value [1] is reported as “did not show any detectable activity”, the IC50 [1, 4] is reported as greater than 50000 nM and the “effect on IRE1α RNase activity” value ([1]; listed as IADP1) is reported as “did not inhibit the RNase activity”.

In the case of `Cc1ccc2c(NS(=O)(=O)c3ccccc3Cl)cccc2c1Oc1ncccc1-c1ccnc(N[C@H]2CCCNC2)n1` [KIRA8], the IC50 [1, 4] is reported as 21 nM and the “effect on p-IRE1α dimerization/oligomerization” value [2] is reported as “interfere with the dimerization; also recorded: inhibited dimerization”.
